The record followed here is patent US20250263400A1, “GCN2 MODULATOR COMPOUNDS” (Alesta Therapeutics BV, priority 2022, published 2025).

Sequence of GCN2 (Q9P2K8 whole entry, species assumed): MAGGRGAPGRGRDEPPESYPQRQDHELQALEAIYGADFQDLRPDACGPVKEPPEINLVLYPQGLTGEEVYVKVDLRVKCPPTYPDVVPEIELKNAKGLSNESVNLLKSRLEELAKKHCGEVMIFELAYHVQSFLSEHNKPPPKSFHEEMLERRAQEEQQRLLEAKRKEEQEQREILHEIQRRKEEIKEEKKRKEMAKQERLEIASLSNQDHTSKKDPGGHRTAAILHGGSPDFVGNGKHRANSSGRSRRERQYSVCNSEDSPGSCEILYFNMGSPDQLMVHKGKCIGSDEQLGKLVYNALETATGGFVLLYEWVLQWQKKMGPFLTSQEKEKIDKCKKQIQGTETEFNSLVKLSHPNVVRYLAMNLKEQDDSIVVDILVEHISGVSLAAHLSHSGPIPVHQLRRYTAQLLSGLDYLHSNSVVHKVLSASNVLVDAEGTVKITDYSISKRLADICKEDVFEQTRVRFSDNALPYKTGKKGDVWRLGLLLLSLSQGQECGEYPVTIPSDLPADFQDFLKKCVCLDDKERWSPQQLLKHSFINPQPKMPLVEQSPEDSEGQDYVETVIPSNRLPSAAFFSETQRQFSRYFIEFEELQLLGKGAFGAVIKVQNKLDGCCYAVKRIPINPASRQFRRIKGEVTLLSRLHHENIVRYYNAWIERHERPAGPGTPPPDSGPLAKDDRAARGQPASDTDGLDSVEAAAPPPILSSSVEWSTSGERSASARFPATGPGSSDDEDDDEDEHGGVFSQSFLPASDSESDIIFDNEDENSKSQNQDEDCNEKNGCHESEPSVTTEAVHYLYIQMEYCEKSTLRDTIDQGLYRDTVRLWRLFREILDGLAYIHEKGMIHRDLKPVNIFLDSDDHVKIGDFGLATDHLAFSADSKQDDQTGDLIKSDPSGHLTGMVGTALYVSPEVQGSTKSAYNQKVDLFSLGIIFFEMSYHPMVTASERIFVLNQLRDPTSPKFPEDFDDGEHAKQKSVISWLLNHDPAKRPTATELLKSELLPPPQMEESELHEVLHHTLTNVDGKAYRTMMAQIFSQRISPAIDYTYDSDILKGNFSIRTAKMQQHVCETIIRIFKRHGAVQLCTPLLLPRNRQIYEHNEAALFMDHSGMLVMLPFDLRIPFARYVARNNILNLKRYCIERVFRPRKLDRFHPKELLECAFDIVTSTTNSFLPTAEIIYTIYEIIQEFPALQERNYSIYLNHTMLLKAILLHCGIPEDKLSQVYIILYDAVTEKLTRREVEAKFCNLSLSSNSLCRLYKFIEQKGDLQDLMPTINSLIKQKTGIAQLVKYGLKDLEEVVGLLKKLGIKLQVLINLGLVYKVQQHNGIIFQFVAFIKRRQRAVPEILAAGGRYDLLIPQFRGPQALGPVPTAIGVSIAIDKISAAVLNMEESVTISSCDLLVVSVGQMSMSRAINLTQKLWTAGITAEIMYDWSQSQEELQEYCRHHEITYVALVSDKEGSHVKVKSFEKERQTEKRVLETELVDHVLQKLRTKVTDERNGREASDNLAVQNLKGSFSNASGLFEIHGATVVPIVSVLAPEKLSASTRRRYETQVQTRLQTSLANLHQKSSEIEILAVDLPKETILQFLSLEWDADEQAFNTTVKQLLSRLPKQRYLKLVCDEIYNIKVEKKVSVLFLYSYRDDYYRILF

This test addresses GCN2 (Homo sapiens (Human), UniProt Q9P2K8). The test can be described thus: GCN2 enzyme assay. It is filed as biochemical. The method, then: For GCN2 enzyme assays, testing compounds were prepared at proper concentrations in DMSO solution. IC50 values were calculated from a remaining activity using read conversion ratio.
Consider `COCCNC(=O)N1CC[C@@H](Nc2ncc3cc(-c4c(F)ccc(NS(=O)(=O)c5cc(Cl)cc(CO)c5Cl)c4F)ccc3n2)C1` [Compound 1, (R)-3-((6-(3-((2,5-dichloro-3-(hydroxymethyl)phe-nyl)sulfonamido)-2,6-difluorophenyl)quina-zolin-2-yl)amino)-N-(2-methoxyethyl)pyr-rolidine-1-carboxamide], for which the IC50 came to 10.4 nM.

Molecule `COCCNC[C@@H]1CC[C@@H](Nc2ncc3cc(-c4c(F)ccc(NS(=O)(=O)c5cc(Cl)cc(CO)c5Cl)c4F)ccc3n2)C1` [Compound 2, 2,5-dichloro-N-(2,4-difluoro-3-(2-(((1R,3R)-3-(((2-methoxyethyl)ami-no)methyl)cyclopent-yl)amino)quina-zolin-6-yl)phenyl)-3-(hydroxymethyl)ben-zenesulfonamide] showed an IC50 of 2.63 nM.

`COCCNC(=O)[C@H]1C[C@H](Nc2ncc3cc(-c4c(F)ccc(NS(=O)(=O)c5cc(Cl)cc(CO)c5Cl)c4F)ccc3n2)CN1` [Compound 3, (2R,4S)-4-((6-(3-((2,5-dichloro-3-(hydroxymethyl)phe-nyl)sulfonamido)-2,6-difluorophenyl)quin-zolin-2-yl)amino)-N-(2-methoxyethyl)pyr-rolidine-2-carboxamide] gave an IC50 of 5.43 nM.

The molecule `CN(C)CCNC(=O)[C@H]1CC[C@H](Nc2ncc3cc(-c4c(F)ccc(NS(=O)(=O)c5cc(Cl)cc(CO)c5Cl)c4F)ccc3n2)CC1` [Compound 4, (1R,4R)-4-((6-(3-((2,5-dichloro-3-(hydroxymethyl)phe-nyl)sulfonamido)-2,6-difluorophenyl)quina-zolin-2-yl)amino)-N-(2-(dimethylamino)eth-yl)cyclohexane-1-carboxamide] displayed an IC50 of 3.94 nM.

In the case of `COCCNC(=O)N1CC[C@@H](Nc2ncc3cc(-c4c(F)ccc(NS(=O)(=O)c5cc(Cl)cnc5OC)c4F)ccc3n2)C1` [Compound 5, (R)-3-((6-(3-((5-chloro-2-methoxypyridine)-3-sulfonamido)-2,6-difluorophenyl)quina-zolin-2-yl)amino)-N-(2-methoxyethyl)pyr-rolidine-1-carboxamide], inhibition was half-maximal at 11.4 nM (IC50).

For the molecule `Cc1ncc(Cl)cc1S(=O)(=O)Nc1ccc(F)c(-c2ccc3nc(N[C@H]4CC[C@H](N(C)C)CC4)ncc3c2)c1F` [Compound 6, 5-chloro-N-(3-(2-(((1R,4R)-4-(dimethylamino)cy-clohexyl)amino)quinazolin-6-yl)-2,4-difluorophenyl)-2-methylpyridine-3-sulfonamide], the IC50 was 3.36 nM.

`COCCNC[C@@H]1CCC(Nc2ncc3cc(-c4c(Cl)ccc(NS(=O)(=O)c5cc(Cl)cnc5OC)c4Cl)ccc3n2)C1` (stereo partly drawn) [Compound 7, 5-chloro-N-(2,4-dichloro-3-(2-(((1R,3R)-3-(((2-methoxyethyl)ami-no)methyl)cyclopent-yl)amino)quina-zolin-6-yl)phenyl)-2-methoxypyridine-3-sulfonamide]: the IC50 turned out to be 12.6 nM.

Turning to `NC(=O)[C@@H]1CC[C@@H](Nc2ncc3cc(-c4c(F)ccc(NS(=O)(=O)c5cc(Cl)cc(CO)c5Cl)c4F)ccc3n2)C1` [Compound 11, (1R,3R)-3-((6-(3-((2,5-dichloro-3-(hydroxymethyl)phe-nyl)sulfonamido)-2,6-difluorophenyl)quina-zolin-2-yl)amino)cyclopent-ane-1-carboxamide], it took 2.12 nM to reach half-maximal inhibition (IC50).

Molecule `O=S1(=O)CCC(Nc2ncc3cc(-c4c(F)ccc(NS(=O)(=O)c5cc(Cl)cc(CO)c5Cl)c4F)ccc3n2)C1` (centres unmarked) [Compound 12, 2,5-dichloro-N-(3-(2-((1,1-dioxidotetrahydro-thiophen-3-yl)amino)quinazo-lin-6-yl)-2,4-difluorophenyl)-3-(hydroxymethyl)ben-zenesulfonamide] had an IC50 of 7.62 nM.

As for `COCCNC[C@@H]1CC[C@@H](Nc2ncc3cc(-c4c(F)ccc(NS(=O)(=O)c5cc(Cl)cnc5OC)c4F)ccc3n2)C1` [Compound 13, 5-chloro-N-(2,4-difluoro-3-(2-(((1R,3R)-3-(((2-methoxyethyl)ami-no)methyl)cyclopent-yl)amino)quina-zolin-6-yl)phenyl)-2-methoxypyridine-3-sulfonamide], the midpoint of inhibition, the IC50, lay at 3.96 nM.

Consider `COc1ncc(Cl)cc1S(=O)(=O)Nc1ccc(F)c(-c2ccc3nc(N[C@@H]4CC[C@@H](C(N)=O)C4)ncc3c2)c1F` [Compound 14, (1R,3R)-3-((6-(3-((5-chloro-2-methoxypyridine)-3-sulfonamido)-2,6-difluorophenyl)quinaz-zolin-2-yl)amino)cyclopent-ane-1-carboxamide 2,2,2-trifluoroacetate], for which it took 3.39 nM to reach half-maximal inhibition (IC50).

Turning to `COCCNC(=O)[C@H]1C[C@H](Nc2ncc3cc(-c4c(F)ccc(NS(=O)(=O)c5cc(Cl)cnc5OC)c4F)ccc3n2)CN1` [Compound 15, (2R,4S)-4-((6-(3-((5-chloro-2-methoxypyridine)-3-sulfonamido)-2,6-difluorophenyl)quina-zolin-2-yl)amino)-N-(2-methoxyethyl)pyr-rolidine-2-carboxamide], half-maximal inhibition (IC50) was put at 4.18 nM.

Molecule `COc1ncc(Cl)cc1S(=O)(=O)Nc1ccc(Cl)c(-c2ccc3nc(N[C@@H]4CC[C@@H](C(N)=O)C4)ncc3c2)c1Cl` [Compound 16, (1R,3R)-3-((6-(2,6-dichloro-3-((5-chloro-2-methoxypyridine)-3-sulfonamido)phenyl)quinazolin-2-yl)amino)cyclopent-ane-1-carboxamide] displayed an IC50 of 11.7 nM.

Regarding `COCCNC(=O)[C@H]1C[C@H](Nc2ncc3cc(-c4c(Cl)ccc(NS(=O)(=O)c5cc(Cl)cnc5OC)c4Cl)ccc3n2)CN1` [Compound 17, (2R,4S)-4-((6-(2,6-dichloro-3-((5-chloro-2-methoxypyridine)-3-sulfonamido)phenyl)quinazolin-2-yl)amino)-N-(2-methoxyethyl)pyr-rolidine-2-carboxamide], the IC50 came out at 9.17 nM.

`COCCNC(=O)N1CC[C@@H](Nc2ncc3cc(-c4c(Cl)ccc(NS(=O)(=O)c5cc(Cl)cnc5OC)c4Cl)ccc3n2)C1` [Compound 18] came in with an IC50 of 41.6 nM.

On to `COCCNC(=O)[C@H]1CC[C@H](Nc2ncc3cc(-c4c(F)ccc(NS(=O)(=O)c5cc(Cl)cnc5OC)c4F)ccc3n2)CC1` [Compound 20, (1R,4R)-4-((6-(3-((5-chloro-2-methoxypyridine)-3-sulfonamido)-2,6-difluorophenyl)quina-zolin-2-yl)amino)-N-(2-methoxyethyl)cyclo-hexane-1-carboxamide], for which half-maximal inhibition (IC50) required 10.2 nM.

Molecule `COCCNC(=O)[C@H]1CC[C@H](Nc2ncc3cc(-c4c(Cl)ccc(NS(=O)(=O)c5cc(Cl)cnc5OC)c4Cl)ccc3n2)CC1` [Compound 21, (1R,4R)-4-((6-(2,6-dichloro-3-((5-chloro-2-methoxypyridine)-3-sulfonamido)phenyl)quinazolin-2-yl)amino)-N-(2-methoxyethyl)cyclo-hexane-1-carboxamide] had an IC50 of 31.9 nM.

For `COc1ncc(Cl)cc1S(=O)(=O)Nc1ccc(F)c(-c2ccc3nc(NC4CCS(=O)(=O)C4)ncc3c2)c1F` (centres unmarked) [Compound 23, 5-chloro-N-(3-(2-((1,1-dioxidotetrahydro-thiophen-3-yl)amino)quinazo-lin-6-yl)-2,4-difluorophenyl)-2-methoxypyridine-3-sulfonamide], the IC50 came out at 6.66 nM.

In turn, `COc1ncc(Cl)cc1S(=O)(=O)Nc1ccc(Cl)c(-c2ccc3nc(NC4CCS(=O)(=O)C4)ncc3c2)c1Cl` (centres unmarked) [Compound 27, 5-chloro-N-(2,4-dichloro-3-(2-((1,1-dioxidotetrahydro-thiophen-3-yl)amino)quinazo-lin-6-yl)phenyl)-2-methoxypyridine-3-sulfonamide] yielded an IC50 of 25.3 nM.

Consider `CCc1cc(-c2c(Cl)cnc(NS(=O)(=O)c3cc(Cl)cc(CO)c3Cl)c2Cl)cc2cnc(N)nc12` [Compound 35, N-(4-(2-amino-8-ethylquinazolin-6-yl)-3,5-dichloropyridin-2-yl)-2,5-dichloro-3-(hydroxymethyl)ben-zenesulfonamide], for which the IC50 worked out at 8.82 nM.

`CCc1cc(-c2c(F)cnc(NS(=O)(=O)c3cc(Cl)cnc3OC)c2F)cc2cnc(N)nc12` [Compound 38, N-(4-(2-amino-8-ethylquinazolin-6-yl)-3,5-difluoropyridin-2-yl)-5-chloro-2-methoxypyridine-3-sulfonamide] had an IC50 of 7.32 nM.

In turn, `CCc1cc(-c2c(Cl)cnc(NS(=O)(=O)c3cc(Cl)cnc3OC)c2Cl)cc2cnc(N)nc12` [Compound 40, N-(4-(2-amino-8-ethylquinazolin-6-yl)-3,5-dichloropyridin-2-yl)-5-chloro-2-methoxypyridine-3-sulfonamide] came in with an IC50 of 8.33 nM.

In turn, `CCc1cc(-c2c(F)ccc(NS(=O)(=O)c3cc(Cl)cnc3OC)c2F)cc2cnc(N[C@H]3CC[C@H](NC)CC3)nc12` [Compound 45, 5-chloro-N-(3-(8-ethyl-2-(((1R,4R)-4-(methylamino)cyclo-hexyl)amino)quina-zolin-6-yl)-2,4-difluorophenyl)-2-methoxypyridine-3-sulfonamide] registered an IC50 of 88.3 nM.

In turn, `CN[C@H]1CC[C@H](Nc2ncc3cc(-c4c(F)ccc(NS(=O)(=O)c5cc(Cl)cnc5OC)c4F)ccc3n2)CC1` [Compound 48, 5-chloro-N-(2,4-difluoro-3-(2-(((1R,4R)-4-(methylamino)cyclo-hexyl)amino)quina-zolin-6-yl)phenyl)-2-methoxypyridine-3-sulfonamide] yielded a concentration for half-maximal inhibition (IC50) of 3.23 nM.

Take `CCc1cc(-c2c(F)ccc(NS(=O)(=O)c3cc(Cl)cnc3OC)c2F)cc2cnc(N[C@H]3CC[C@H](N)CC3)nc12` [Compound 52, N-(3-(2-(((1R,4R)-4-aminocyclohexyl)amino)-8-ethylquinazolin-6-yl)-2,4-difluorophenyl)-5-chloro-2-methoxypyridine-3-sulfonamide]: 5.13 nM corresponded to half-maximal inhibition (IC50).

`CN(C)[C@H]1CC[C@H](Nc2ncc3cc(-c4c(F)ccc(NS(=O)(=O)c5cc(Cl)cc(CO)c5Cl)c4F)ccc3n2)CC1` [Compound 53, 2,5-dichloro-N-(3-(2-(((1R,4R)-4-(dimethylamino)cy-clohexyl)amino)quinazolin-6-yl)-2,4-difluorophenyl)-3-(hydroxymethyl)ben-zenesulfonamide] showed an IC50 of 1.11 nM.

The term IC50 denotes the concentration needed to halve the response being measured. A low value points to greater potency.
